IC50 data for 1 compound are collected here from PMC9011347, “Small-Molecule Inhibitors Targeting Lipolysis in Human Adipocytes” (Journal of the American Chemical Society, 2022).

Test in all cases: TAG hydrolase assay, humanized mouse ATGL variants
What all share (type): biochemical

Test [1] concerns the target T1, mouse ATGL I69F/T93I/C97F/T146G quadruple mutant (Mus musculus, UniProt Q8BJ56, C97F/I69F/T146G/T93I).
T1 construct: host or cells: Expi293 cells, cell lysate
Conditions: I69F/T93I/C97F/T146G quadruple mutant of mouse ATGL. From the text: (§1) According to our 3D model, aa T93 and C97 are located in close spatial proximity to I69. […] According to our 3D models, the overall topologies of the minimal active domains of mouse and human ATGL are identical, with S47 and D166 as active site residues in close spatial proximity (depicted as green sticks, Figure 6d,f). Residues S10–L178 (depicted in blue for mouse and pink for human) build a relatively compact half of the protein, while residues K179–L254 (depicted in gray) are less compact. The minimal active domain of both mouse and human ATGL is predicted to have a large, two-pronged fork cavity. The “left,” shallow prong is formed mainly by residues S10–L17 and S170–L254. The “right,” deeper prong is formed by five different helices (depicted in light blue and pink for mouse and human ATGL, respectively). The first helix is assembled by the N-terminal residues G16-E31. […] form three other helices and residues L137–F147 assemble a short helix with an adjacent unstructured stretch. In the orientation shown in Figure 6d,f, the active site is located in the middle part of the cavity connecting both prongs to the exterior. I69, C97, T146, and their human counterparts F69, F97, and G146, are all located in the right prong of the cavity. T(G)146 is located near the active site, while I(F)69 and C(F)97 are located on the opposite side of the cavity in close spatial proximity (Figure 6e,g). Our 3D homology models indicate that these residues change the widths and depths of the right prong, which can explain their crucial contribution to inhibitor selectivity and efficacy.
(§2) Figure 6 Identification of the molecular scaffold determining species selectivity. (a) Schematic view of mouse ATGL variants, which are sensitive to NG-497 inhibition. Humanized aa are indicated in red and nonidentical aa are indicated in dark blue. (b) Dose-dependent inhibition of the I69F/T146G double mutant, the I69F/T93I/C97F/T146G quadruple mutant, and human ATGL. (c) Dose-dependent inhibition of triple mutants I69F/T93I/T146G and I69F/C97F/T146G, and human ATGL. IC50 values are shown in the insets. […]

Test [2] deals with T2, mouse ATGL triple mutant I69F/C97F/T146G (Mus musculus, UniProt Q8BJ56, C97F/I69F/T146G).
T2 construct: host or cells: Expi293 cells, cell lysate
Conditions: I69F/C97F/T146G triple mutant of mouse ATGL.
Text: as §1, §2

The target of test [3] is T3, mouse ATGL triple mutant I69F/T93I/T146G (Mus musculus, UniProt Q8BJ56, I69F/T146G/T93I).
T3 construct: host or cells: Expi293 cells, cell lysate
The following applies: I69F/T93I/T146G triple mutant of mouse ATGL.
Text: as §1, §2

T2 sequence (Q8BJ56 whole entry I69F/C97F/T146G): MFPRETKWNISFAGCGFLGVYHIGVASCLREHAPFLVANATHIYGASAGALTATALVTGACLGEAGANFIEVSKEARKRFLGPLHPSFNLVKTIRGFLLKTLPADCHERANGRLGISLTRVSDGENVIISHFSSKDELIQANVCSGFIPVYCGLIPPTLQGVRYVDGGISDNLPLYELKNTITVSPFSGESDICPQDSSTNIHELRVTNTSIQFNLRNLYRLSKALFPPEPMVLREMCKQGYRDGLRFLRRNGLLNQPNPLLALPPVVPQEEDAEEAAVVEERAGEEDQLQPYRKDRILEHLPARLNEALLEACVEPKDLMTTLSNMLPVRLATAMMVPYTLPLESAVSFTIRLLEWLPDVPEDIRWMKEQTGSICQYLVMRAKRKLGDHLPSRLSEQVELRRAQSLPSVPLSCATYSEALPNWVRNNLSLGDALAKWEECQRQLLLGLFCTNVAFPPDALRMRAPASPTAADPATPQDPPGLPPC
T1 sequence (Q8BJ56 whole entry I69F/T93I/C97F/T146G): as the sequence (Q8BJ56 whole entry I69F/C97F/T146G) above, with T93I counted along it
T3 sequence (Q8BJ56 whole entry I69F/T93I/T146G): as the sequence (Q8BJ56 whole entry I69F/C97F/T146G) above, with T93I, F97C counted along it

Regarding `CCOc1ccc(-c2cc(OC)cc(C(=O)OC(C)C)n2)cc1` [NG-497], the figures for the IC50 in test [1], in test [2] and in test [3] were 1600 ± 100 nM, 1000 nM and 9300 nM, respectively.
